The test system of test [1] is burn scar. The test can be described thus: Topical metformin to treat a burn scar on intact skin (patient case). The test is classed as in vivo, human. As to conditions: 250 mg/mL in petrolatum ointment, two times per day. The procedure: A patient with a burn scar from a previously treated skin cancer complaining of a raised red and itchy scar on their chest received topical metformin in petrolatum ointment at 250 mg/mL with directions to apply the lotion to the affected area (red, raised fibrotic scarred skin on chest) two times per day.

Test [2] concerns surgical defect. Nature of the test: Topical metformin to treat scarring on open skin (surgical defect, patient case). The format is in vivo, human. Particulars: topical ointment 250 mg/mL twice a day; within 4 weeks; in comparison to patients healing with topical petrolatum alone; observation by physician. The procedure:
A patient with a previous surgical scar from removal of skin cancer with a scalpel received topical metformin ointment at 250 mg/mL with directions to apply the ointment twice a day to the surgical defect until healed (approximately 2-4 weeks).

Here are results for one compound from US20190054045A1, “METHODS AND COMPOSITIONS FOR TREATING SKIN CONDITIONS” (priority 2017, published 2019).

As to `CN(C)C(=N)N=C(N)N` [metformin], the “scarring of the skin” value in test [1] (after one month) is “further improved”. In test [1] (within 14 days, observation by physician and patient), the “scarring of the skin (redness, itch, softness)” value is “visibly reduced with less redness, itch, and increased softness”. Besides, the “scarring and redness of area” value in test [2] was “minimal scaring and redness”.
